The source of these data is patent US20080233208A1, “USE OF ERIANIN IN PREPARING PHARMACEUTICAL FOR TREATING TUMORS” (The Jiang Cell Biomedical Research Co., Ltd., priority 2007, published 2008).

The test system of one data set is liver cancer of mouse. The note with it: cited from earlier work.
In another data set the test system is tumor cell strain K256. The settings on record: among dihydrobibenzyls and phenanthrenes in Dendrobium chrysotoxum; cited from earlier work.
The conditions of data set [1]: mice bearing Lewis lung cancer, i.p. x 10 qd.
The subject of a further data set is Lewis lung cancer. Briefly: Tumor inhibition in murine model with Lewis lung cancer. The format is in vivo, C57BL/6J mice. The settings on record: for Tumor inhibiting rate / Tumor weight: 19th day after inoculation.
The conditions of data set [2]: compared with 5FU; cited from earlier work.
Data set [3] has as its system human leukemia HL-60 cells. The note with it: cited from earlier work.
The conditions of data set [4]: in vivo; cited from earlier work.

As to `COc1ccc(CCc2cc(OC)c(OC)c(OC)c2)cc1O` [Erianin], the tumor inhibitory rate with liver cancer of mouse is 50.82%. Besides, in the data set with tumor cell strain K256, the “inhibitory effect on the growth of tumor cell strain K256” value is reported as “most active”. Further, in data set [1], the Death entry is “no death occurred”. In addition, in data set [1], the “General condition of the mice (signs of toxicity)” value is “normal appetite, bright hair and free movements”. Further, the figures for the Tumor inhibiting rate in the data set with Lewis lung cancer (50 mg/kg i.p. x 10 qd), with Lewis lung cancer (100 mg/kg i.p. x 10 qd) and in the data set on Lewis lung cancer (200 mg/kg i.p. x 10 qd) were 38.8%, 46.0% and 55.6%, respectively. For the same compound, the Tumor weight amounted to 1.59 ± 0.26 in the data set with Lewis lung cancer (50 mg/kg i.p. x 10 qd), 1.40 ± 0.31 in the data set with Lewis lung cancer (100 mg/kg i.p. x 10 qd) and 1.15 ± 0.14 in the data set with Lewis lung cancer (200 mg/kg i.p. x 10 qd). The “Result assessment of tumor inhibiting effect” value in the data set with Lewis lung cancer (mice bearing Lewis lung cancer, in words) is on record as “quite effective”. Further, the toxic side effect result in data set [2] was “far lower than 5FU”. For the same compound, the “inhibition of growth of HL-60 cells” value in data set [3] is “significantly inhibited”.
Turning to `N.N.[Cl][Pt][Cl]` [DDP, Cisplatin, reference compound], in the data set with Lewis lung cancer (1 mg/kg i.p. x 10 qd), the Tumor inhibiting rate came to 51.4% and the Tumor weight is 1.26 ± 0.15.
The LD50 is the dose at which mortality reaches 50%. For `COc1ccc(/C=C\c2cc(OC)c(OC)c(OC)c2)cc1O` [Combretastatin A-4], the LD50 in data set [4] is given as 500 mg/kg.
`O=P1(N(CCCl)CCCl)NCCCO1` (stereo not shown) [CTX, Cyclophosphamide, reference compound]: the “General condition of the mice (signs of toxicity)” value in data set [1] is “signs of athrepsia, listlessness, and pilo-erection”. In the data set with Lewis lung cancer (30 mg/kg i.p. x 10 qd), this compound yielded a Tumor inhibiting rate of 63.2% and a Tumor weight of 0.96 ± 0.13.
